Source: patent US10434098B2, “Deuterated dehydrophenylahistin compounds and preparation method thereof and use thereof in preparation of anti-tumor drugs” (MARINE BIOMEDICAL RESEARCH INSTITUTE OF QINGDAO CO., LTD., priority 2015, dated 2019)

What was measured:
Format in all cases: cell-based
[1] = tested on: intracellular microtubulin of human epidermal carcinoma A431; experiment: High content imaging analysis of microtubulin (immunofluorescent staining, Alexa 488); details: 12.5 nM, 24 h; for Alexa488 stained fluorescence intensity of microtubulin in the cells: versus blank and DMSO control, FIG. 3/4; for microtubulin distribution and cellular morphology / Alexa488 fluorescence intensity compared with the positive control Plinabulin: A431 cells; for microtubulin distribution and cellular morphology: FIG. 3; for Alexa488 fluorescence intensity compared with the positive control Plinabulin: FIG. 4
Procedure: Plinabulin (dehydro-phenylahistin) is used as positive control, and concentration is set as 12.5 nM. According to the data in earlier-stage, 3 kinds of samples are selected, i.e., compounds 1, 2 and 3. The concentrations of all samples are set as 12.5 nM. According to the experiment method for specific immunofluorescent staining (Alexa 488), the effect of the compounds 1, 2 and 3 on the expression of intracellular microtubulin of human epidermal carcinoma A431 is detected via the high content imaging analysis system. 1) Taking cells in the logarithmic phase, after digestion with pancreatin, the cells disperse into single cells counting, inoculating in the 96-well plates at 1.2×10^4 cells/well, putting at temperature of 37° C., culturing in a 5% CO2 incubator for 24 h until cell attachment. 2) After cell attachment, for experiment group, adding the fresh culture medium containing compounds with different concentrations respectively into each well, making the concentrations of the compounds reach 12.5 nM, and setting 3 duplicate wells for each concentration. In the control group, adding a solvent DMSO with equimultiple diluting, selecting Plinabulin (dehydro-phenylahistin) as a positive drug, setting 3 duplicate wells in each group, and culturing in an incubator at temperature of 37° C. under 5% CO2 saturated humidity for 24 h. 3) Absorbing the culture medium after 24 h, and washing with PBS for 3 times; fixing with 4% paraformaldehyde for 30 min, absorbing paraformaldehyde, and washing with PBS for 3 times; sealing with 0.3% Triton X-100 and 5% BSA for 30 min, absorbing, and washing with PBS for 3 times; adding Tubulin antibody (mouse antibody, diluting in a ratio of 1:200), and staying overnight at temperature of 4° C.; absorbing, and washing with PBS for 3 times; adding DyLight 488-goat anti mouse IgG (diluting in a ratio of 1:1000), and placing at room temperature for 90 min 4) Photographing analysis of high content imaging analysis system

[2] = tested on: human acute T cell leukemia cell Jurkat; experiment: MTT inhibition ratio on tumor cells Jurkat; details: for Inhibition ratio (%): 72 h, MTT; for activity of inhibiting tumors compared with positive control: summary of Table 2
Procedure: (§1) The inhibition ratio of the selected compounds on tumor cells A431 and Jurkat is measured via the MTT analytical method.
(§2) 1) Cell strains: human skin cancer cell strain A431 and human acute T cell leukemia cell Jurkat. The ells grow in an RPMI-1640 culture medium and high glucose DMEM (Gibco BRL, Rockville, Md., USA)+10% fetal calf serum (containing 2 mM L-glutamine, penicillin and streptomycin), and putting them into an incubator at 37° C. (5% CO2-95% air) for growing, carrying out digestive passage with 0.25% trypsin, and changing the solution every 1 to 2 days.
(§3) 2) The dissolution and dilution of compounds: according to the molecular weight and mass of the compounds, preparing into a 10 mM of mother solution respectively using DMSO (SIGMA), and diluting to the required concentration of 100 μM (DMSO content≤3%o) with the RPMI-1640 culture medium. Storing the diluted drugs at temperature of −20° C.
(§4) 1) Cell inoculation: Taking cells in the logarithmic phase, after digestion with pancreatin, the cells disperse into single cells, counting, adjusting cell suspension to […], inoculating in the 96-well plates with 180 μL in each well, and making the amount of the inoculated cells is 4.0×10^3 cells/well. After cell attachment, adding the fresh culture media containing compounds with different concentrations respectively, making the concentrations of the compounds reach 12.5 nM and 6.25 nM, setting 3 duplicate wells for each concentration, operating in absence of light, and adjusting the content of DMSO in each concentration to be consistent.
(§5) 2) After drug incubation for 72 h, adding 20 μL of MTT (3-[4,5-dimethylthiazol-2-yl]-2,5-diphenyltetrazolium bromide, Sigma; 5 mg/mL) into each well, incubating in a incubator for 4 h, removing supernate, adding 150 μL of DMSO into each well for dissolving, and measuring absorbancy at 570 nm using the microplate reader. According to the formula: Inhibition ratio=[(A570 control well−A570 administration well)/A570 control well]×100%, to calculate the inhibition ratio of each concentration, and the result is shown in the table 2.

[3] = tested on: human skin cancer cell strain A431; experiment: MTT inhibition ratio on tumor cells A431; details: for Inhibition ratio (%): 72 h, MTT; for activity of inhibiting tumors compared with positive control: A431, summary of Table 2
Procedure: as §1, §2, §3, §4, §5

SMILES	Alexa488 stained fluorescence intensity of microtubulin in the cells [1]	microtubulin distribution and cellular morphology [1]	Alexa488 fluorescence intensity compared with the positive control Plinabulin [1]	Inhibition ratio (%) ([2]; concentration 12.5 nM)	activity of inhibiting tumors compared with positive control [2]	Inhibition ratio (%) ([3]; A431, concentration 12.5 nM)	activity of inhibiting tumors compared with positive control [3]	Inhibition ratio (%) ([2]; concentration 6.25 nM)	Inhibition ratio (%) ([3]; A431, concentration 6.25 nM)
[2H]/C(c1nc[nH]c1C(C)(C)C)=c1/[nH]c(=O)/c(=C/c2c([2H])c([2H])c([2H])c([2H])c2[2H])[nH]c1=O [Compound 1, (3Z,6Z)-3-(phenyl-2,3,4,5,6-d5)-methylene-6-((5-(tert-butyl)-1H-imidazol-4-yl)methylene-d)piperazine-2,5-dione]	obviously enhanced	aggregation in microtubulin and a significant change in cellular morphology	higher than the positive control in the effect	86.46	close to that of the positive control Plinabulin	95.04	close to that of the positive control Plinabulin		
[2H]/C(c1ccccc1)=c1/[nH]c(=O)/c(=C(\[2H])c2nc[nH]c2C(C)(C)C)[nH]c1=O [Compound 2, (3Z,6Z)-3-(phenylmethylene-d)-6-((5-(tert-butyl)-1H-imidazol-4-yl)methylene-d)piperazine-2,5-dione]	obviously enhanced	aggregation in microtubulin and a significant change in cellular morphology	higher than the positive control in the effect	79.65	close to that of the positive control Plinabulin	94.11	close to that of the positive control Plinabulin		
[2H]/C(c1nc[nH]c1C(C)(C)C)=c1/[nH]c(=O)/c(=C/c2ccccc2)[nH]c1=O [Compound 3, (3Z,6Z)-3-(phenylmethylene)-6-((5-(tert-butyl)-1H-imidazol-4-yl)methylene-d)piperazine-2,5-dione]	obviously enhanced	aggregation in microtubulin and a significant change in cellular morphology	higher than the positive control in the effect	86.09	close to that of the positive control Plinabulin	93.79	close to that of the positive control Plinabulin		
[2H]/C(c1ccccc1)=c1/[nH]c(=O)/c(=C/c2nc[nH]c2C(C)(C)C)[nH]c1=O [Compound 4, (3Z,6Z)-3-(phenylmethylene-d)-6-((5-(tert-butyl)-1H-imidazol-4-yl)methylene)piperazine-2,5-dione]				82.33	close to that of the positive control Plinabulin	91.85	close to that of the positive control Plinabulin	16.04	53.90
[2H]c1c([2H])c([2H])c(/C=c2\[nH]c(=O)/c(=C/c3nc[nH]c3C(C)(C)C)[nH]c2=O)c([2H])c1[2H] [Compound 5, (3Z,6Z)-3-(phenyl-2,3,4,5,6-d5)-methylene-6-((5-(tert-butyl)-1H-imidazol-4-yl)methylene)piperazine-2,5-dione]				16.86	close to that of the positive control Plinabulin	66.00	close to that of the positive control Plinabulin		
[2H]/C(c1c([2H])c([2H])c([2H])c([2H])c1[2H])=c1/[nH]c(=O)/c(=C/c2nc[nH]c2C(C)(C)C)[nH]c1=O [Compound 6, (3Z,6Z)-3-(phenyl-2,3,4,5,6-d5)-methylene-d-6-((5-(tert-butyl)-1H-imidazol-4-yl)methylene)piperazine-2,5-dione]				73.40	close to that of the positive control Plinabulin	79.28	close to that of the positive control Plinabulin	7.70	16.17
[2H]/C(c1nc[nH]c1C(C)(C)C)=c1/[nH]c(=O)/c(=C(\[2H])c2c([2H])c([2H])c([2H])c([2H])c2[2H])[nH]c1=O [Compound 7, (3Z,6Z)-3-(phenyl-2,3,4,5,6-d5)-methylene-d-6-((5-(tert-butyl)-1H-imidazol-4-yl)methylene-d)piperazine-2,5-dione]				64.49	close to that of the positive control Plinabulin	87.73	close to that of the positive control Plinabulin		
CC(C)(C)c1[nH]cnc1/C=c1\[nH]c(=O)/c(=C/c2ccccc2)[nH]c1=O [Plinabulin, reference compound]	obviously enhanced	aggregation in microtubulin and a significant change in cellular morphology		79.69		91.81		13.75	63.25
